Data on 3 substances can be found in patent US20130053430A1, “MODULATION OF CETP EXPRESSION” (Isis Pharmaceuticals, Inc., priority 2010, published 2013).

e = 2'-O-(2-methoxyethyl) (MOE); d = 2'-deoxy (DNA)

In one data set the test system is CETP mRNA. In words: Dose response, liver CETP mRNA in huCETP transgenic mice on Western diet (Example 9). Format: in vivo, human. The following applies: s.c. 6 weeks. As to the method: Male transgenic mice were maintained on a 12-hour light/dark cycle and were fed ad libitum the Western diet (TD88137; 42% cal from fat, 0.2% cholesterol; Harlan Laboratories, Indianapolis, Ind.). Animals were acclimated for at least 7 days in the research facility before initiation of the experiment and were maintained on this diet throughout the study period. Antisense oligonucleotides (ASOs) were prepared in buffered saline (PBS) and sterilized by filtering through a 0.2 micron filter. Oligonucleotides were dissolved in 0.9% PBS for injection.
(§1) Another group received subcutaneous injections of control oligonucleotide ISIS 141923 at a dose of 50 mg/kg/week for 6 weeks. One group of mice received subcutaneous injections of PBS for 6 weeks. The PBS-injected group served as the control group to which treatment groups were compared.
Twenty four hours after the final dose, the animals were sacrificed and liver tissue was isolated. Liver RNA was isolated for real-time PCR analysis of CETP. The primer probe sets hCETP and hCETP2_LTS00182 were individually used to measure CETP levels. As presented in Table 43, treatment with ISIS 349517 reduced CETP mRNA expression in a dose-dependent manner. Both primer probe sets produced similar results. The RNA expression levels were normalized to murine Cyclophilin. The results are expressed as percent inhibition of CETP mRNA, relative to the PBS control.

The test system of the next data set is CETP activity. As to the kind of experiment: CETP activity assay kit, dose response (Example 9). The data set is classed as in vivo, human. The following applies: huCETP transgenic mice, Western diet, s.c. 6 weeks. As to the method:
as §1
CETP activity levels were measured using a CETP activity assay kit (Roar Biomedical Inc.).

Data set [1] concerns human CETP mRNA. In words: Liver CETP mRNA in huCETP transgenic mice, normal or cholesterol-enriched chow (Example 6). The settings on record: 50 mg/kg s.c. twice per week for 6 weeks, relative to PBS control. Format: in vivo. Here is the method:
Male huCETP transgenic mice were maintained on a 12-hour light/dark cycle. One group of mice was fed ad libitum normal Purina mouse chow and a second group was fed 0.5% cholesterol-enriched chow (Harlan Teklad TD.97234, Harlan Laboratories, Indianapolis, Ind.). Animals were acclimated for at least 7 days in the research facility before initiation of the experiment. Antisense oligonucleotides (ASOs) were prepared in buffered saline (PBS) and sterilized by filtering through a 0.2 micron filter. Oligonucleotides were dissolved in 0.9% PBS for injection.
(§2) The normal chow-fed mice were divided into three treatment groups. The cholesterol-enriched chow-fed mice were divided into three treatment groups. […] One chow-fed group and one cholesterol-enriched chow-fed group received subcutaneous injections of saline twice weekly for 6 weeks. The saline-injected groups served as the control groups to which the corresponding oligonucleotide-treated groups were compared.
Twenty four hours after the final dose, the animals were sacrificed and liver tissue was isolated. Liver RNA was isolated for real-time PCR analysis of CETP. The primer probe set hCETP was used to measure CETP levels. As presented in Table 16, treatment with antisense oligonucleotides reduced CETP mRNA expression. The RNA expression levels were normalized to murine Cyclophilin. The results are expressed as percent inhibition of CETP mRNA, relative to the PBS control. There was no difference in inhibition of CETP mRNA levels in normal chow-fed and cholesterol-enriched chow fed mice.

Data set [2] in a line: Body and organ weights of huCETP transgenic mice (Example 5). Format: in vivo. The following applies: 50 mg/kg i.p. twice per week. Here is the method:
(§3) The mice were divided into five treatment groups. The first four groups received intraperitoneal injections of ISIS 349511, ISIS 349512, ISIS 349515, or ISIS 349517 at a dose of 50 mg/kg twice per week for 6 weeks. The fifth group received intraperitoneal injections of saline twice weekly for 6 weeks.
The body weights of the mice were measured pre-dose and regularly during the treatment period. The body weights are presented in Table 10, and are expressed in grams.

Data set [3] can be described thus: Plasma glucose in huCETP transgenic mice (Example 5). Format: in vivo. The settings on record: 50 mg/kg i.p. twice per week. Here is the method:
as §3
Plasma glucose values were determined using a Beckman Glucose Analyzer II (Beckman Coulter) by a glucose oxidase method (Lott, J. A. et al., Clin. Chem. 21: 1754-1760, 1975).

Data set [4] is described as follows: Liver function, plasma ALT and AST (Example 6). The following applies: 50 mg/kg s.c. twice per week. The data set is classed as in vivo, mice.
From the text: as §2
Plasma concentrations of ALT (alanine transaminase) and AST (aspartate transaminase) at weeks 0, 3 and 6 were measured and the results are presented in Tables 18 and 19 expressed in IU/L.

For data set [5], the system named is human CETP mRNA. As to the kind of experiment: Antisense inhibition of human CETP mRNA in primary hepatocytes from huCETP transgenic mice (Example 4). Format: cell-based, mouse. The settings on record: cytofectin, ~24 hours. The method, boiled down: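 Primary hepatocytes from human CETP transgenic mice, 17,500 cells/well, transfected by cytofectin with 100 nM or 200 nM antisense oligonucleotide. After about 24 h, CETP mRNA quantified by real-time PCR, normalised to GAPDH, as percent inhibition versus untreated cells.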

On to “ISIS 141923: CCTTCCCTGAAGGTTCCTCC, 5-10-5 MOE gapmer, a control oligonucleotide which has no known murine target (sugars from the 5' end e5 d10 e5, backbone and methylation of C not given here) [reference compound]”, for which, in the data set on CETP mRNA (Dose 50 mg/kg/wk), the “Percent inhibition of liver CETP mRNA expression, PPset hCETP” value was 0% and the “Percent inhibition of liver CETP mRNA expression, PPset hCETP2_LTS00182” value is given as 0%. In the data set with CETP activity (Dose 50 mg/kg/wk), the “Percent inhibition of CETP activity” value stood at 2%.

Consider “ISIS 349511: 5-10-5 MOE gapmer CCCGACCTCCTTGGAGACTT (sugars from the 5' end e5 d10 e5, backbone and methylation of C not given here)”, for which the “Percent inhibition of liver CETP mRNA expression” value in the data set on human CETP mRNA [1] (Cholesterol chow) is 88%; in the data set with human CETP mRNA [1] (Normal chow) it was 89%. Besides, the Body weights in data set [2] (Week 0) turned out to be 19 grams; in data set [2] (Week 1) it was 21 grams; in data set [2] (Week 2), 23 grams; in data set [2] (Week 4), 25 grams; in data set [2] (week 6), 26 grams. Further, the “Organ weights, Kidney” value in data set [2] (week 6) worked out at 312.5 mg. Besides, the “Organ weights, Liver” value in data set [2] (week 6) came out at 1.3 g. In data set [2] (week 6), the “Organ weights, Spleen” value is recorded as 76.0 mg. For the same substance, the results for the Glucose levels in data set [3] (week 3) and in data set [3] (week 6) were 286 mg/dL and 245 mg/dL, respectively. For the same substance, the Alanine transaminase levels in data set [4] (Cholesterol chow, Week 0) is 28 IU/L; in data set [4] (Cholesterol chow, Week 3), 28 IU/L; in data set [4] (Cholesterol chow, Week 6), 66 IU/L; in data set [4] (Normal chow, Week 0), 16 IU/L; in data set [4] (Normal chow, Week 3), 22 IU/L; in data set [4] (Normal chow, Week 6), 22 IU/L. Further, the Aspartate transaminase levels in data set [4] (Cholesterol chow, Week 0) is 49 IU/L; in data set [4] (Cholesterol chow, Week 3), 44 IU/L; in data set [4] (Cholesterol chow, Week 6) it was 123 IU/L; in data set [4] (Normal chow, Week 0) it was 89 IU/L; in data set [4] (Normal chow, Week 3), 47 IU/L; in data set [4] (Normal chow, Week 6), 81 IU/L. Also, the “Percent inhibition of human CETP mRNA” value is 74% in the data set with human CETP mRNA [5] (100 nM) and 95% in the data set on human CETP mRNA [5] (200 nM).

For “ISIS 349517: 5-10-5 MOE gapmer CAGCACTTTAATGCCAGTGG (sugars from the 5' end e5 d10 e5, backbone and methylation of C not given here)”, the “Percent inhibition of liver CETP mRNA expression” value in the data set with human CETP mRNA [1] (Cholesterol chow) was found to be 98%; in the data set with human CETP mRNA [1] (Normal chow), 95%. The Body weights amounted to 25 grams in data set [2] (Week 0); 27 grams in data set [2] (Week 1); 28 grams in data set [2] (Week 2); 28 grams in data set [2] (Week 4); 29 grams in data set [2] (week 6). The “Organ weights, Kidney” value in data set [2] (week 6) was 355.5 mg. In data set [2] (week 6), the “Organ weights, Liver” value was 1.7 g. Besides, the “Organ weights, Spleen” value in data set [2] (week 6) was determined as 89.0 mg. For the same substance, the Glucose levels in data set [3] (week 3) turned out to be 333 mg/dL; in data set [3] (week 6), 254 mg/dL. Moreover, the “Percent inhibition of liver CETP mRNA expression, PPset hCETP” value was 59% in the data set with CETP mRNA (Dose 1.5 mg/kg/wk), 87% in the data set with CETP mRNA (Dose 5 mg/kg/wk), 91% with CETP mRNA (Dose 15 mg/kg/wk) and 92% with CETP mRNA (Dose 50 mg/kg/wk). Moreover, the “Percent inhibition of liver CETP mRNA expression, PPset hCETP2_LTS00182” value in the data set with CETP mRNA (Dose 1.5 mg/kg/wk) turned out to be 59%; with CETP mRNA (Dose 5 mg/kg/wk) it was 87%; in the data set on CETP mRNA (Dose 15 mg/kg/wk), 95%; in the data set on CETP mRNA (Dose 50 mg/kg/wk), 96%. Also, the Alanine transaminase levels is listed as 19 IU/L in data set [4] (Cholesterol chow, Week 0); 56 IU/L in data set [4] (Cholesterol chow, Week 3); 76 IU/L in data set [4] (Cholesterol chow, Week 6); 17 IU/L in data set [4] (Normal chow, Week 0); 24 IU/L in data set [4] (Normal chow, Week 3); 158 IU/L in data set [4] (Normal chow, Week 6). The Aspartate transaminase levels is reported as 54 IU/L in data set [4] (Cholesterol chow, Week 0); 72 IU/L in data set [4] (Cholesterol chow, Week 3); 113 IU/L in data set [4] (Cholesterol chow, Week 6); 75 IU/L in data set [4] (Normal chow, Week 0); 61 IU/L in data set [4] (Normal chow, Week 3); 196 IU/L in data set [4] (Normal chow, Week 6). In addition, the “Percent inhibition of CETP activity” value in the data set on CETP activity (Dose 1.5 mg/kg/wk) is given as 33%; in the data set on CETP activity (Dose 5 mg/kg/wk), 59%; in the data set with CETP activity (Dose 15 mg/kg/wk) it was 76%; with CETP activity (Dose 50 mg/kg/wk), 77%. The “Percent inhibition of human CETP mRNA” value with human CETP mRNA [5] (100 nM) turned out to be 85%; with human CETP mRNA [5] (200 nM), 98%.
